Laboratory results from patent publication US9340492B2, “Meta-Diarylaniline or meta-diarylpyridinamine compound, preparation method and medical uses thereof” (INSTITUTE OF PHARMACOLOGY AND TOXICOLOGY ACADEMY OF …, priority 2012, dated 2016).
Converted amounts (≈) assume the structure as drawn.

Assays:
[1] = Water-solubility at pH2.0; format: physicochemical; settings: for solubility: aqueous medium (water) at pH 2.0, pH 2, simulated gastric fluid
[2] = test system: K101E drug-resistant virus; assay: Activity against drug-resistant virus K101E; format: cell-based, HIV; settings: Human immunodeficiency virus 1, read-out: Drug-resistant viruses EC50, K101E
[3] = test system: NL4-3 virus (HIV, wild-type); assay: Anti-HIV activity assay (TZM-bl cell model), NL4-3 wild-type; format: cell-based; settings: human, TZM-bl cells infected with HIV-1 NL4-3 virus; CC50 (TZM-bl) / EC50 (NL4-3); read-out: SI, selective index, ratio of toxic CC50 value to active EC50 value
Experimental: (§1) The assay was carried out by reference to the document (Dang, Z, et al. J. Med. Chem. 2009, 52, 7887-7891). In particular, in a 96-well cell culture plate, solutions of the compounds to be tested at different concentrations were mixed with TZM-bl cells (from National Institutes of Health (NIH)) infected with 200 TCID50 NL4-3 virus, respectively. 2 days later, the culture medium was removed, 100 μl of Bright Glo reagent was added to each well, and Victor 2 luminometer was used to detect the […] of the cells.

NL4-3 virus = assay: as above; format: cell-based; settings: Human immunodeficiency virus 1, NL43, TZM-bl, read-out: EC50, concentration effective to inhibit the replication of half of viruses
Experimental: as §1

[4] = test system: E138K drug-resistant virus; assay: Activity against drug-resistant virus E138K; format: cell-based, HIV; settings: Human immunodeficiency virus 1, read-out: Drug-resistant viruses EC50, E138K
[5] = TZM-bl cytotoxicity assay (XTT); format: cell-based; settings: human, TZM-bl cells, read-out: CC50, concentration effective to inhibit the growth of half of cells
Experimental: The assay was carried out by reference to the document (Dang, Z, et al. J. Med. Chem. 2009, 52, 7887-7891). In particular, in a 96-well cell culture plate, solutions of Compounds 1-57 at different concentrations (100 μl) were mixed with an equivalent volume of TZM-bl cells (from National Institutes of Health (NIH)) (5×10^5/mL), and were incubated at 37° C. for 4 d. 50 μl of freshly prepared XTT solution (1 mg/mL) containing 0.02 μM PMS was added. Optical density at 450 nm was measured 4 h later.

[6] = Incubation experiment of human liver microsomes; format: in vitro ADME; settings: for half-life: read-out: HLM t1/2
[7] = test system: multi-drug resistant viral strain of HIV-1 RT (RTMDR); assay: Activity against drug-resistant virus RTMDR; format: cell-based; settings: Human immunodeficiency virus 1, read-out: Drug-resistant viruses EC50, RTMDR

| SMILES | solubility [1] [µg/mL] | EC50 [2] [nM] | selectivity ratio at 2 days [3] | EC50 (NL4-3 virus) [nM] | EC50 [4] [nM] | CC50 at 4 d [5] [nM] | HLM t1/2 [6] [min] | EC50 [7] [nM] | Water-solubility [1] [µg/mL] | half-life [6] [min] |
| --- | --- | --- | --- | --- | --- | --- | --- | --- | --- | --- |
| Cc1cc(CCC#N)cc(C)c1Oc1cc(Nc2ccc(C#N)cc2)c(N)cc1CO [Compound 6, 5-(4″-cyanoethyl-2″,6″-dimethylphenoxy)-N^1-(4′-cyanophenyl)-4-hydroxymethyl-1,2-phenylenediamine] | 18.8 (≈ 45.6 µM) | 3.4 | 61000 | 0.39 | 2.9 | > 23800 | 20.9 | 1.8 | – | – |
| Cc1cc(CCC#N)cc(C)c1Oc1cc(Nc2ccc(C#N)cc2)c(N)cc1C(F)(F)F [Compound 2, 5-(4″-cyanoethyl-2″,6″-dimethylphenoxy)-N^1-(4′-cyanophenyl)-4-trifluoromethyl-1,2-phenylenediamine] | – | 47.6 | > 6280 | 1.13 | 34.4 | > 7100 | 55.7 | 3.2 | 0.33 | – |
| N#CCCc1cc(Br)c(Oc2ccc(N)c(Nc3ccc(C#N)cc3)n2)c(Br)c1 [Compound 28] | 3.26 (≈ 6.35 µM) | 7.63 | 24900 | 0.33 | 4.11 | 8210 | – | 0.74 | – | 23 |
| Cc1cc(CCC#N)cc(C)c1Oc1cc(Nc2ccc(C#N)cc2)c(N)cc1CNC1CC1 [Compound 34, 5-(4″-cyanoethyl-2″,6″-dimethylphenoxy)-N^1-(4′-cyanophenyl)-4-(2-cyclopropylaminomethyl)-1,2-phenylenediamine] | 9.11 (≈ 20.2 µM) | 27.3 | > 9430 | 0.53 | 25.7 | > 5000 | – | 4.88 | – | 42 |
| COc1cc(CCC#N)cc(Br)c1Oc1ccc(N)c(Nc2ccc(C#N)cc2)n1 [Compound 26A] | 1.77 (≈ 3.81 µM) | 3.89 | 6560 | 3.25 | 6.93 | 21000 | – | 3.46 | – | 54.7 |
| COC(=O)c1cc(N)c(Nc2ccc(C#N)cc2)cc1Oc1c(C)cc(CCC#N)cc1C [Compound 4, 5-(4″-cyanoethyl-2″,6″-dimethylphenoxy)-N^1-(4′-cyanophenyl)-4-methoxycarbonyl-1,2-phenylenediamine] | 1.21 (≈ 2.75 µM) | 14 | > 5260 | 4.3 | 7.5 | > 22700 | 186 | 4.1 | – | – |
